From US6737383B1, “Herbicidal oxadiazolidines” (priority 1999, dated 2004)

Experiments:
wild oat = experiment: Test B pre/postemergence wild oat; format: in vivo, Avena fatua
Outline: (§1)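 Response is a visual 0-to-10 score relative to untreated plants, where 0 means no effect and 10 means complete control, taken twelve to sixteen days after application. Treatments went onto soil at planting and onto foliage of 1- to 4-leaf plants, using a surfactant-containing non-phytotoxic solvent.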

cocklebur = experiment: Test B pre/postemergence cocklebur; format: in vivo, Xanthium strumarium
Outline: as §1

wheat = experiment: Test B pre/postemergence wheat; format: in vivo, Triticum aestivum
Outline: as §1

morningglory = experiment: Test B pre/postemergence morningglory; format: in vivo, Ipomoea hederacea
Outline: as §1

sugar beet = experiment: Test B pre/postemergence sugar beet; format: in vivo, Beta vulgaris
Outline: as §1

corn = experiment: Test B pre/postemergence corn; format: in vivo, Zea mays
Outline: as §1

velvetleaf = experiment: Test B pre/postemergence velvetleaf; format: in vivo, Abutilon theophrasti
Outline: as §1

rape = experiment: Test B pre/postemergence rape; format: in vivo, Brassica napus
Outline: as §1

surinam grass = experiment: Test B pre/postemergence surinam grass; format: in vivo, Brachiaria decumbens
Outline: as §1

purple nutsedge = experiment: Test B pre/postemergence purple nutsedge; format: in vivo, Cyperus rotundus
Outline: as §1

duck salad = experiment: Test B flood test duck salad; format: in vivo, Heteranthera limosa
Outline: (§2)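 Plants were grown to the 2-leaf stage before treatment with test chemical, then held in a greenhouse for twelve to sixteen days. Injury was visually rated against untreated controls on a 0–10 scale, where 0 is no effect and 10 is complete control.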

smallflower flatsedge = experiment: Test B flood test smallflower flatsedge; format: in vivo, Cyperus difformis
Outline: as §2

giant foxtail = experiment: Test B pre/postemergence giant foxtail; format: in vivo, Setaria faberii
Outline: as §1

crabgrass = experiment: Test B pre/postemergence crabgrass; format: in vivo, Digitaria sanguinalis
Outline: as §1

blackgrass = experiment: Test B pre/postemergence blackgrass; format: in vivo, Alopecurus myosuroides
Outline: as §1

soybean = experiment: Test B pre/postemergence soybean; format: in vivo, Glycine max
Outline: as §1

[1] = Postemergence, Rate 500 g/ha, scale of 0 to 10 where 0 is no effect and 10 is complete control
[2] = Preemergence, Rate 62 g/ha, scale 0 to 10 (0 no effect, 10 complete control)
[3] = Preemergence, Rate 125 g/ha, scale of 0 to 10 where 0 is no effect and 10 is complete control
[4] = Preemergence, Rate 250 g/ha, scale 0 to 10, 0 is no effect, 10 is complete control
[5] = Preemergence, Rate 500 g/ha, scale 0 to 10, 0 is no effect, 10 is complete control
[6] = Postemergence, Rate 125 g/ha, scale 0 to 10, 0 is no effect, 10 is complete control
[7] = Postemergence, Rate 250 g/ha, scale 0 to 10, 0 is no effect, 10 is complete control
[8] = Rate 62 g/ha, Postemergence, scale of 0 to 10 where 0 is no effect and 10 is complete control
[9] = Preemergence, Rate 250 g/ha, scale of 0 to 10 where 0 is no effect and 10 is complete control
[10] = Rate 62 g/ha, flood test species, Pre-emergence, visual evaluation after twelve to sixteen days
[11] = Rate 125 g/ha, under heading Pre-emergence, flood test species, visual evaluation after twelve to sixteen days
[12] = Rate 250 g/ha, Pre-emergence, flood-test species, scale 0 to 10, 0 is no effect, 10 is complete control
[13] = Rate 500 g/ha, Pre-emergence, flood test species, scale 0 to 10 (0 no effect, 10 complete control)

## Cc1nc(Cl)sc1C(C)n1c(=O)on(C(=O)N(c2ccccc2)C(C)C)c1=O (centres unmarked) [Compound 407]
Wild oat; [1]
  Wild oats plant response rating: 0
Wild oat; [2]
  Plant response rating, Wild oats: 0
Wild oat; [3]
  Plant response rating, Wild oats: 0
Wild oat; [4]
  Wild oats plant response rating: 0
Wild oat; [5]
  Wild oats plant response rating: 0
cocklebur; [6]
  Plant response rating, Cocklebur: 0
cocklebur; [7]
  Plant response rating, Cocklebur: 0
cocklebur; [1]
  Cocklebur plant response rating: 0
cocklebur; [2]
  Plant response rating, Cocklebur: 0
cocklebur; [3]
  Plant response rating, Cocklebur: 0
cocklebur; [4]
  Cocklebur plant response rating: 0
cocklebur; [5]
  Cocklebur plant response rating: 0
cocklebur; [8]
  Cocklebur plant response rating: 0
wheat; [1]
  Wheat plant response rating: 0
wheat; [2]
  Plant response rating, Wheat: 0
wheat; [3]
  Plant response rating, Wheat: 0
wheat; [4]
  Wheat plant response rating: 0
wheat; [5]
  Wheat plant response rating: 0
morningglory; [7]
  Plant response rating, Morningglory: 10
morningglory; [1]
  Morningglory plant response rating: 10
morningglory; [2]
  Plant response rating, Morningglory: 0
morningglory; [3]
  Plant response rating, Morningglory: 0
morningglory; [4]
  Morningglory plant response rating: 0
morningglory; [5]
  Morningglory plant response rating: 0
Sugar beet; [7]
  Plant response rating, Sugarbeets: 0
Sugar beet; [1]
  Sugarbeets plant response rating: 0
Sugar beet; [2]
  Plant response rating, Sugarbeets: 0
Sugar beet; [3]
  Plant response rating, Sugarbeets: 0
Sugar beet; [4]
  Sugarbeets plant response rating: 0
Sugar beet; [5]
  Sugarbeets plant response rating: 0
corn; [6]
  Plant response rating, Corn: 0
corn; [7]
  Plant response rating, Corn: 0
corn; [1]
  Corn plant response rating: 0
corn; [2]
  Plant response rating, Corn: 0
corn; [3]
  Plant response rating, Corn: 0
corn; [4]
  Corn plant response rating: 0
corn; [5]
  Corn plant response rating: 0
corn; [8]
  Corn plant response rating: 0
velvetleaf; [7]
  Plant response rating, Velvetleaf: 0
velvetleaf; [1]
  Velvetleaf plant response rating: 2
velvetleaf; [2]
  Plant response rating, Velvetleaf: 0
velvetleaf; [3]
  Plant response rating, Velvetleaf: 0
velvetleaf; [4]
  Velvetleaf plant response rating: 0
velvetleaf; [5]
  Velvetleaf plant response rating: 0
rape; [7]
  Plant response rating, Rape: 0
rape; [2]
  Plant response rating, Rape: 0
rape; [3]
  Plant response rating, Rape: 0
rape; [4]
  Rape plant response rating: 0
rape; [5]
  Rape plant response rating: 0
Surinam grass; [6]
  Plant response rating, B. signalgrass: 0
Surinam grass; [7]
  Plant response rating, B. signalgrass: 0
Surinam grass; [1]
  B. signalgrass plant response rating: 0
Surinam grass; [2]
  Plant response rating, B. signalgrass: 0
Surinam grass; [3]
  Plant response rating, B. signalgrass: 0
Surinam grass; [9]
  B. signalgrass plant response rating: 0
Surinam grass; Preemergence, Rate 500 g/ha, scale of 0 to 10 where 0 is no effect and 10 is complete control
  B. signalgrass plant response rating: 0
Surinam grass; [8]
  B. signalgrass plant response rating: 0
Purple nutsedge; [7]
  Plant response rating, Nutsedge: 0
Purple nutsedge; [1]
  Nutsedge plant response rating: 0
Purple nutsedge; [2]
  Plant response rating, Nutsedge: 0
Purple nutsedge; [3]
  Plant response rating, Nutsedge: 0
Purple nutsedge; [4]
  Nutsedge plant response rating: 0
Purple nutsedge; [5]
  Nutsedge plant response rating: 0
Duck salad; [10]
  Plant response rating, Ducksalad (0 to 10 scale, 0 is no effect, 10 is complete control): 0
Duck salad; [11]
  Ducksalad plant response rating (0 to 10 scale, 0 is no effect, 10 is complete control): 0
Duck salad; [12]
  Ducksalad plant response rating: 0
Duck salad; [13]
  Ducksalad plant response rating: 0
Smallflower flatsedge; [10]
  Plant response rating, S. Flatsedge (0 to 10 scale, 0 is no effect, 10 is complete control): 0
Smallflower flatsedge; [11]
  S. Flatsedge plant response rating (0 to 10 scale, 0 is no effect, 10 is complete control): 0
Smallflower flatsedge; [12]
  S. Flatsedge plant response rating: 0
Smallflower flatsedge; [13]
  S. Flatsedge plant response rating: 0
Giant foxtail; [6]
  Plant response rating, Giant foxtail: 0
Giant foxtail; [7]
  Plant response rating, Giant foxtail: 3
Giant foxtail; [1]
  Giant foxtail plant response rating: 8
Giant foxtail; [2]
  Plant response rating, Giant foxtail: 0
Giant foxtail; [3]
  Plant response rating, Giant foxtail: 6
Giant foxtail; [4]
  Giant foxtail plant response rating: 9
Giant foxtail; [5]
  Giant foxtail plant response rating: 10
Giant foxtail; [8]
  Giant foxtail plant response rating: 0
crabgrass; [6]
  Plant response rating, Crabgrass: 0
crabgrass; [7]
  Plant response rating, Crabgrass: 1
crabgrass; [1]
  Crabgrass plant response rating: 3
crabgrass; [2]
  Plant response rating, Crabgrass: 0
crabgrass; [3]
  Plant response rating, Crabgrass: 2
crabgrass; [4]
  Crabgrass plant response rating: 5
crabgrass; [5]
  Crabgrass plant response rating: 9
crabgrass; [8]
  Crabgrass plant response rating: 0
blackgrass; [6]
  Plant response rating, Blackgrass: 0
blackgrass; [7]
  Plant response rating, Blackgrass: 0
blackgrass; [1]
  Blackgrass plant response rating: 7
blackgrass; [2]
  Plant response rating, Blackgrass: 0
blackgrass; [3]
  Plant response rating, Blackgrass: 0
blackgrass; [9]
  Blackgrass plant response rating: 0
blackgrass; [5]
  Blackgrass plant response rating: 0
blackgrass; [8]
  Blackgrass plant response rating: 0
soybean; [7]
  Plant response rating, Soybean: 2
soybean; [1]
  Soybean plant response rating: 2
soybean; [2]
  Plant response rating, Soybean: 0
soybean; [3]
  Plant response rating, Soybean: 0
soybean; [4]
  Soybean plant response rating: 0
soybean; [5]
  Soybean plant response rating: 0
